One series has as its system rats. The series is described as follows: reflex inhibition and antinociception after intravenous and intrathecal injection in rats. Type of series: in vivo. To be noted: for antinociceptive efficacy: after intrathecal injection; for reflex inhibitory potency: intravenous and intrathecal injection.
For series [1] the following is noted: compared with prediction and with morphine; cited from earlier work.
Another series deals with δ receptors (Homo sapiens, UniProt P41143). The conditions noted are these: binding studies; cited from earlier work.
The conditions of series [2]: cited from earlier work.
The target of the next series is κ receptors (Homo sapiens, UniProt P41145). To be noted: binding studies; cited from earlier work.
The target of the next series is µ receptors (Homo sapiens, UniProt P35372). The conditions noted are these: binding studies; cited from earlier work.
For series [3] the following is noted: more potent than morphine; cited from earlier work.
For series [4] the following is noted: more potent than morphine; cited from earlier work. This is another data set of the same source.
The subject of series [5] is homogenate of bovine caudate nucleus. To be noted: cited from earlier work.
In the next series the test system is mice. To be noted: cited from earlier work.
The conditions of series [6]: pH of 7.4; relative to morphine; cited from earlier work.

Structures are written as SMILES. Read-outs that look alike come from different tables or passages of the source.

Sequence of δ receptors (P41143 whole entry, looked up): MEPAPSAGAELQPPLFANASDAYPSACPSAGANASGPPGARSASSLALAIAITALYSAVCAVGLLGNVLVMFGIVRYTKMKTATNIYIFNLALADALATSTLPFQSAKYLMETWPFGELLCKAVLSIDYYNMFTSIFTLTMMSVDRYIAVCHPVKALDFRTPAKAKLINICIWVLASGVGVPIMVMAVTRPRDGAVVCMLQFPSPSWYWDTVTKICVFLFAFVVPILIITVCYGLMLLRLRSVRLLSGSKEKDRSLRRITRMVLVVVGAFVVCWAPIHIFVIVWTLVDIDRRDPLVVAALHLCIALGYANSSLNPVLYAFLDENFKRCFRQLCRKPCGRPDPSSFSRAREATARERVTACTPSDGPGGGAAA
Sequence of κ receptors (P41145 whole entry, looked up): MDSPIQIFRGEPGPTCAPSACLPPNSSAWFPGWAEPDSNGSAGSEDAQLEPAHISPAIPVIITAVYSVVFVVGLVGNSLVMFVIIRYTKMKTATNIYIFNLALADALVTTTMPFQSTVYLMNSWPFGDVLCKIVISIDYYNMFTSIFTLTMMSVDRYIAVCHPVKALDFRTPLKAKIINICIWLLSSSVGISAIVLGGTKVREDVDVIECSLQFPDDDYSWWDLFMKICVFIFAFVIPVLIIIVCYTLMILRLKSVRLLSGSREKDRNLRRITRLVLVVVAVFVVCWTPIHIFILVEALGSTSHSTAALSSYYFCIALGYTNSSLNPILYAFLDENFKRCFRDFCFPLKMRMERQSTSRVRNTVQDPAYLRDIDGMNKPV
Sequence of µ receptors (P35372 whole entry): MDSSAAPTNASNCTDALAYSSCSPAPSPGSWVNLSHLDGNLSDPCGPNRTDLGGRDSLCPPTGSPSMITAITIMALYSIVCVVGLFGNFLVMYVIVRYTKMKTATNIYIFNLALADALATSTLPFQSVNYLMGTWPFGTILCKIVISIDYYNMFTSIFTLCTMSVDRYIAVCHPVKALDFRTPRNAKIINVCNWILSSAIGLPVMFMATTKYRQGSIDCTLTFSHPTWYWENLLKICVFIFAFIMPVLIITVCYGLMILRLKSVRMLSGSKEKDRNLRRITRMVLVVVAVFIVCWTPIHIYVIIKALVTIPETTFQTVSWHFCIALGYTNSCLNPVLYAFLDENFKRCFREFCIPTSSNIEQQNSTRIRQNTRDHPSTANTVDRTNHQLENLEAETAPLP

With `COc1ccc2c3c1O[C@H]1[C@@H](NC(=O)c4cccnc4)CC[C@H]4[C@@H](C2)N(C)CC[C@@]341` [7,8-dihydro-6α-nicotinoylaminocodeine], in the series on rats, the antinociceptive efficacy entry is on record as “long-lasting antinociceptive efficacy” and the reflex inhibitory potency result is given as “strong reflex inhibitory potency”.
Regarding `CN1CC[C@]23c4c5ccc(O)c4O[C@H]2[C@@H](NC(=O)c2cccnc2)CC[C@H]3[C@H]1C5` [7,8-dihydro-6α-nicotinoylaminomorphine], in the series on rats, the antinociceptive efficacy result is “long-lasting antinociceptive efficacy” and the reflex inhibitory potency result is “strong reflex inhibitory potency”.
`CN1CC[C@]23c4c5ccc(O[C@@H]6O[C@H](C(=O)O)[C@@H](O)[C@H](O)[C@H]6O)c4O[C@H]2[C@@H](O)C=C[C@H]3[C@H]1C5` [Example M-3-G]: the lipophilicity entry in series [1] is given as “far more lipophilic than predicted”. Further, the “affinity, δ receptors” value at δ receptors is “poor affinity”. The effect of microinjection entry in series [2] (microinjection directly into the periaquaductal grey) is “without effect”. The “affinity, κ receptors” value on κ receptors was “poor affinity”. In addition, the “affinity, µ receptors” value at µ receptors is given as “poor affinity”.
`CN1CC[C@]23c4c5ccc(O)c4O[C@H]2[C@@H](O[C@@H]2O[C@H](C(=O)O)[C@@H](O)[C@H](O)[C@H]2O)C=C[C@H]3[C@H]1C5` [Example M-6-G, morphine-6-glucuronide]: in [1], the lipophilicity entry was “far more lipophilic than predicted”. Also, the “antinociceptive potency relative to morphine, writhing” value in series [3] is recorded as 45 fold. For the same compound, the “affinity, δ receptors” value on δ receptors was “not”. For the same compound, the “antinociceptive potency relative to morphine, tail-flick” value in series [4] is on record as 61 fold. Moreover, the seizure activity entry in [2] (high doses) is “profound seizure activity”. For the same compound, the “potency relative to morphine following microinjection” value in [2] (microinjection into the periaquaductal grey) is recorded as “up to 20 fold”. Also, in series [5], the “ability to displace ³H-naloxone” value was “comparable to that of morphine”. The “analgesic potency relative to morphine” value in the series with mice (given intrathecally) is recorded as 90 fold; in the series on mice (given intravenously) it was 650 fold. In the series on mice (spinal cord compared with supraspinal), the “analgesic effectiveness at the level of the spinal cord versus supraspinally” value is “approximately 5 fold”. Also, the “analgesia, effect relative to morphine” value in the series on mice (subcutaneous administration, mice) is on record as “approximately twice”.
With `CN1CC[C@]23c4c5ccc(O)c4O[C@H]2[C@@H](O)C=C[C@H]3[C@H]1C5` [morphine], in the series with mice (mouse, in vivo), the “analgesic potency at both levels of the neuraxis” value is on record as “equipotent”.
Turning to `CN1CC[C@]23c4c5ccc(OC(=O)c6cccnc6)c4O[C@H]2[C@@H](OC(=O)c2cccnc2)C=C[C@H]3[C@H]1C5` [nicomorphine, 3,6-dinicotinoyl-morphine], the “lipid solubility higher than that of morphine” value in series [6] is on record as “about 10 fold”.
